# According to patent US20200247897A1, “THERAPEUTIC ANTIBODIES BASED ON MUTATED IGG HEXAMERS” (GENMAB B.V., priority 2017, published 2020):
# “Also recorded” adds a separate entry of the source.
# What was measured:
# [1] = tested on: SW480 human colon cancer cells; assay: Subcutaneous SW480 colon cancer xenograft model; format: in vivo, NOD/SCID mice; settings: 0.5, 2, 10 mg/kg i.v., twice Q7D
# Procedure: 1×10^7 cells were injected in a volume of 200 μL PBS with Matrigel (1:1) into the flank of 6-8 weeks old female NOD/SCID mice (Beijing HFK Bioscience).
# [2] = tested on: BxPC-3 pancreatic cancer cells; assay: 3-days CellTiter-Glo viability assay, BxPC-3
# [3] = tested on: COLO 205 human colon cancer cells; assay: Subcutaneous COLO 205 colon cancer xenograft model; format: in vivo, SCID mice
# Procedure: The in vivo anti-tumor efficacy of different anti-DR5 antibodies and the combination of DR5-01+DR5-05 antibodies with hexamerization enhancing mutation was evaluated in a subcutaneous model with COLO 205 human colon cancer cells. At day 0, cells were harvested by pooling the culture supernatant containing non-adherent cells and trypsinized adherent cells. 3×10^6 cells were injected in a volume of 200 μL PBS into the flank of 6-11 weeks old female SCID mice (C.B-17/IcrHan®Hsd-Prkdc^scid; Harlan). All experiments and animal handlings were approved by the local authorities, and were conducted according to all applicable international, national and local laws and guidelines. Tumor development was monitored at least twice per week by caliper (PLEXX) measurement as 0.52×(length)×(width)^2. […] Mice were treated by intraperitoneal (i.p.) injection of 100 μg antibody in 200 μL PBS on day 6 and 13 (5 mg/kg per dose). To check for correct antibody administration, blood samples were obtained for IgG serum determination three days after the first dose. […] Tumors were measured until 16 weeks after tumor inoculation.
# Mice were treated by intravenous (i.v.) injection of 40 μg (2 mg/kg), 10 μg (0.5 mg/kg) or 2 μg (0.1 mg/kg) antibody in 100 μL PBS on day 10. Mice in the control group were treated with 40 μg (2 mg/kg) IgG1-b12. Tumors were measured until 17 weeks after tumor inoculation.
# At day 9, the average tumor volume was measured and the mice were sorted into groups with equal tumor size variance. Mice were treated by intravenous (i.v.) injection of 10 μg (0.5 mg/kg) antibody in 200 μL PBS on day 9. Mice in the control group were treated with 10 μg (0.5 mg/kg) IgG1-b12.
# [4] = tested on: HCT-15 human colon cancer cells; assay: Subcutaneous HCT-15 colon cancer xenograft model; format: in vivo, BALB/c nude mice; settings: Example 30: 0.5, 2, 10 mg/kg i.v., twice Q7D
# Procedure: The care and use of animals during the study were conducted in accordance with the regulations of the Association for Assessment and Accreditation of Laboratory Animal Care (AAALAC). Tumor volumes were measured twice weekly in two dimensions using a caliper, and the volume was expressed in mm^3 using the formula: V=0.5 a×b2 where a and b are the long and short diameters of the tumor, respectively.
# The care and use of animals during the study were conducted in accordance with the regulations of the Association for Assessment and Accreditation of Laboratory Animal Care (AAALAC). Tumor volumes were measured twice weekly in two dimensions using a caliper, and the volume was expressed in mm^3 using the formula: V=0.5 a×b^2 where a and b are the long and short diameters of the tumor, respectively.
# [5] = tested on: HCT-15 colon cancer cells; assay: 3-days CellTiter-Glo viability assay, HCT-15; settings: 4 μg/mL
# [6] = tested on: COLO 205 human colon cancer cells; assay: 3-days CellTiter-Glo viability assay, COLO 205; format: cell-based
# Procedure: COLO 205 cells were harvested by pooling the culture supernatant containing non-adherent cells and trypsinized adherent cells. HCT 116 cells were harvested by trypsinization. […] In samples that were treated with a combination of two antibodies, the total antibody concentration in the assay was the same as in the samples that were treated with single antibodies. […] From the kit, 20 μL luciferin solution reagent was added per well and mixed by shaking the plate for 2 minutes at 500 rpm. Next, plates were incubated for 1.5 hours at 37° C. 100 μL supernatant was transferred to a white OptiPlate-96 (Perkin Elmer, Cat nr 6005299) and luminescence was measured on an EnVision Multilabel Reader (PerkinElmer). Data were analyzed and plotted using non-linear regression (sigmoidal dose-response with variable slope) using GraphPad Prism software.
# The antibodies with and without the E430G mutation were tested as single agent and as combinations of the two non-crossblocking antibodies. COLO 205 cells were harvested as described in Example 8.
# [7] = tested on: SK-MES-1 human lung cancer cells; assay: Subcutaneous SK-MES-1 lung cancer xenograft model; settings: Example 33: 0.5, 2, 10 mg/kg i.v., twice Q7D
# Procedure: The cells were maintained in vitro as a monolayer culture in MEM medium supplemented with 10% fetal bovine serum and 0.01 mM NEAA at 37° C. in an atmosphere of 5% CO2 in air. At day 0, adherent cells in an exponential growth phase were harvested by trypsin-EDTA treatment. 5×10^6 cells were injected in a volume of 100 μL PBS into the flank of 6-8 weeks old female BALB/c mice (Shanghai Laboratory Animal Center). Mouse handling and tumor volume measurements were performed as described in Example 30. Twenty-one days after tumor inoculation, the mean tumor size reached 161 mm^3 and mice were assigned into groups using randomized block design and treatments were started. Mice were treated twice according to a Q7D regimen by i.v. injection of 200 μg (10 mg/kg), 40 μg (2 mg/kg) or 10 μg (0.5 mg/kg) antibody in 10 μL PBS per g body weight. Mice in the control group were treated in parallel with 200 μg (10 mg/kg) IgG1-b12. After tumor inoculation, welfare of the animals was checked daily and tumor volumes were measured twice weekly.
# Cell culturing, tumor cell inoculation, mice handling, tumor outgrowth measurements and endpoint determination were performed as described in Example 33.
# [8] = tested on: PANC-1 pancreatic cancer cells; assay: 3-days CellTiter-Glo viability assay, PANC-1; format: cell-based, human; settings: 10 μg/mL
# [9] = 10 μg/mL, F(ab')2 goat-anti-human IgG, listed as IgG1-DR5-CONA
substance,measurement,setting,value
"IgG1-CONA: reference anti-DR5 antibody based on U.S. Pat. No. 7,521,048 B2 and WO2010/138725",tumor growth (mean tumor volume) versus IgG1-b12,[1],"only better than IgG1-b12 at the highest doses (10 mg/kg and 2 mg/kg p<0.01), but not at 0.5 mg/kg"
same,effect of secondary crosslinker on killing of BxPC-3 cells,[2]; 4 μg/mL,enhanced by the presence of a secondary crosslinker
same,killing of BxPC-3 cells in absence of Fc crosslinker,[2]; 10 μg/mL,did not induce target cell killing in the absence of an Fc crosslinker
same,killing of BxPC-3 cells in presence of Fc crosslinker,[2]; [9],Fc crosslinking induced killing; also recorded: only induced killing in the presence of Fc crosslinker
same,tumor growth (mean tumor volume),[3]; Example 26: 5 mg/kg i.p. on day 6 and 13,"strongly inhibited tumor growth compared to IgG1-b12, but did not result in complete tumor abrogation"
same,"tumor growth progression versus IgG1-b12 (Kaplan-Meier, cutoff >500 mm^3)",[3]; Example 27: 0.5 mg/kg and 2 mg/kg,significantly inhibited tumor growth progression compared to the negative control antibody IgG1-b12
same,tumor regression (mean tumor volume),[3]; Example 27: single dose 0.5 mg/kg i.v. day 10,regression was incomplete with recurring tumor outgrowth in all mice
same,tumor regression (mean tumor volume),[3]; Example 27: single dose 2 mg/kg i.v. day 10,almost all (7/8) mice
same,tumor growth (mean tumor volume),[4],did not
same,effect of secondary crosslinker on killing of HCT15 cells,[5],enhanced by the presence of a secondary crosslinker
same,killing of COLO 205 cells in presence of Fc crosslinker,[6]; [9],Fc crosslinking induced killing; also recorded: only induced killing in the presence of Fc crosslinker
same,killing of COLO 205 cells in absence of Fc crosslinker,"[6]; 10 μg/mL, adherent cells",did not induce target cell killing in the absence of an Fc crosslinker
same,killing of adherent (attached) COLO 205 cells (% viable cells),"[6]; cells adhered overnight before adding antibody, dilution series",not able to kill attached COLO 205 colon cancer cells
same,tumor growth (mean tumor volume) versus IgG1-b12,[7],only had a significant effect compared to IgG1-b12 at 10 mg/kg (p<0.01) and 2 mg/kg (p<0.05) but not at 0.5 mg/kg
same,killing of PANC-1 cells in absence of Fc crosslinker,[8],did not induce target cell killing in the absence of an Fc crosslinker
